Values of other authors in US11980625B2, “Ganaxolone for use in treating tuberous sclerosis complex” (Marinus Pharmaceuticals, Inc., priority 2019, dated 2024).
Read-outs that look alike come from different tables or passages of the source.

Tests used:
[1] = system: patients with TSC-related epilepsy; settings: 18 weeks, cited from earlier work
[2] = human plasma; cited from earlier work
[3] = system: patients with TSC-related epilepsy; settings: Phase 2, open-label, 3 months; cited from earlier work
[4] = system: patients with TSC-related epilepsy; settings: 16 weeks, cited from earlier work

For `CO[C@H]1C[C@@H]2CC[C@@H](C)[C@@](O)(O2)C(=O)C(=O)N2CCCC[C@H]2C(=O)O[C@H]([C@H](C)C[C@@H]2CC[C@@H](OCCO)[C@H](OC)C2)CC(=O)[C@H](C)/C=C(\C)[C@@H](O)[C@@H](OC)C(=O)[C@H](C)C[C@H](C)/C=C/C=C/C=C/1C` [AFINITOR ®], the “Median % change in seizure freq (Drug Response)” value (shortened to “Median % change in seizure freq”) ([1]; Phase 3, High-exposure) is listed as “High-exposure: −39.6%” and the “Median % change in seizure freq” value ([1]; Phase 3, Low-exposure) is listed as “Low-exposure: −29.3%”.
In the case of `CC(=O)[C@H]1CC[C@H]2[C@@H]3CC[C@H]4C[C@H](O)CC[C@]4(C)[C@H]3CC[C@]12C` [Allopregnanolone, 3α,5α-tetrahydroprogesterone, reference compound], the half-life [2] is listed as “about 45 minutes”.
For `C=C(C)[C@@H]1CCC(C)=C[C@H]1c1c(O)cc(CCCCC)cc1O` [EPIDIOLEX ®], the “Median % change in seizure freq” value [3] is given as −48.8%, the “Median % change in seizure freq” value ([4]; Phase 3, 25 mg/kg/day) is given as 25 mg/kg/day: −48.6% and the “Median % change in seizure freq” value ([4]; Phase 3, High-exposure) is given as “High-exposure: −47.5%”.
